Data: the supplement of paper PMC12076712

Assays:
Test in all cases: pIC50, kinobeads binding competition
CAMK2G = CAMK2G (UniProt Q13555)
Summary of the method: (§1)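 To obtain pIC50, fold changes versus vehicle were fitted to logistic dose-response curves (R drc package) across biological duplicates. Protein binding to Kinobeads was quantified by TMT10 LC-MS/MS of digested bead-bound proteins. Treatments used nine concentrations with a top of 30 μM, applied to live Jurkat cells in 1:4 steps for 60 min at 37 °C before lysis, or to Jurkat lysate or a 1:1:1:1 HEK293/K-562/HepG2/placenta lysate mix in 1:5 steps for 60 min at 4 °C.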

CDK9 = CDK9 (UniProt P50750)
Summary of the method: as §1

MELK = MELK (UniProt Q14680)
Summary of the method: as §1

PKMYT1 = target: T1, PKMYT1 (UniProt Q99640)
T1 sequence (whole entry): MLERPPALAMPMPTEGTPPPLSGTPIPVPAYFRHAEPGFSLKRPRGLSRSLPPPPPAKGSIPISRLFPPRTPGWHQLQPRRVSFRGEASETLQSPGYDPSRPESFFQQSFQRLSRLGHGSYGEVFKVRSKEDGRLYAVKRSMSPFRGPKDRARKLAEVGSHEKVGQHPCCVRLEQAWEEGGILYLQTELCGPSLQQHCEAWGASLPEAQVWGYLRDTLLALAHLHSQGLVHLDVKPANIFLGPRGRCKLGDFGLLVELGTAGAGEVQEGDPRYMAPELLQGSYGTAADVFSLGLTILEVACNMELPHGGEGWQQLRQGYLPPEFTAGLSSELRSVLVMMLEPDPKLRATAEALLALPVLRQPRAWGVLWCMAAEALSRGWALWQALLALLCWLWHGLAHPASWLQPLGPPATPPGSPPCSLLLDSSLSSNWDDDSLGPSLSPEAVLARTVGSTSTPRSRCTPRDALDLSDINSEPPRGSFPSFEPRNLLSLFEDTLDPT
Summary of the method: as §1

UniProt O15111 = target: T2, UniProt O15111
T2 sequence (whole entry): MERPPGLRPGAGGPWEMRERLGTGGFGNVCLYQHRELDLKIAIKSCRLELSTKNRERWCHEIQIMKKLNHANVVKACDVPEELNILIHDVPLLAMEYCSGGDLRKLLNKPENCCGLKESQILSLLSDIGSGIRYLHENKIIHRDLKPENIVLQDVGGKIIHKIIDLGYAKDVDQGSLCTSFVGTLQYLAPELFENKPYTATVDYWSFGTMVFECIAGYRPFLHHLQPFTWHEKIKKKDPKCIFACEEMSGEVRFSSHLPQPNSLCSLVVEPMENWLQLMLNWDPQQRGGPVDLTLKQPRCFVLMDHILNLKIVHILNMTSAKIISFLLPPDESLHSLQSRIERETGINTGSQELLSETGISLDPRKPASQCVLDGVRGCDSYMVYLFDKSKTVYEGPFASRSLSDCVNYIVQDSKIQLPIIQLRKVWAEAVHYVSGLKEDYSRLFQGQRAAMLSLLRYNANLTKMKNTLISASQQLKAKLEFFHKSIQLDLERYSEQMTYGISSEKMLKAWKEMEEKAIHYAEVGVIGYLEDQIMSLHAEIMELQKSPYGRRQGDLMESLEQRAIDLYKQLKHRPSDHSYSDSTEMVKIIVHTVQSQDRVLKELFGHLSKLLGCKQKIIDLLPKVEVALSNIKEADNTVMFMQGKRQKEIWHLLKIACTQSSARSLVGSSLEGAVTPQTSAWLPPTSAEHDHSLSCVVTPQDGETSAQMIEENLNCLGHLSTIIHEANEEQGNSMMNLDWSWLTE
Summary of the method: as §1

UniProt P45985 = target: T3, UniProt P45985
T3 sequence (whole entry): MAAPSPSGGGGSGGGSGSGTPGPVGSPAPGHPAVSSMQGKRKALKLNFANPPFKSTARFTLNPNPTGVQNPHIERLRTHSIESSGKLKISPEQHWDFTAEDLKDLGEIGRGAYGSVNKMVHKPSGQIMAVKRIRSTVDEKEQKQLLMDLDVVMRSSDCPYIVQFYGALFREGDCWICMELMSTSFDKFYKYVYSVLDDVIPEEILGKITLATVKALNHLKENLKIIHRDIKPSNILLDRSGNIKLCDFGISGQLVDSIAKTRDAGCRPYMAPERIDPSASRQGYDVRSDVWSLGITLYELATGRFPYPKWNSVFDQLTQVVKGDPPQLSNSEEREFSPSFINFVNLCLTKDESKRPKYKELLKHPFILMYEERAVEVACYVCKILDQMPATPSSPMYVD
Summary of the method: as §1

UniProt Q15139 = target: T4, UniProt Q15139; details: cell material: Lysate mix
T4 sequence (whole entry): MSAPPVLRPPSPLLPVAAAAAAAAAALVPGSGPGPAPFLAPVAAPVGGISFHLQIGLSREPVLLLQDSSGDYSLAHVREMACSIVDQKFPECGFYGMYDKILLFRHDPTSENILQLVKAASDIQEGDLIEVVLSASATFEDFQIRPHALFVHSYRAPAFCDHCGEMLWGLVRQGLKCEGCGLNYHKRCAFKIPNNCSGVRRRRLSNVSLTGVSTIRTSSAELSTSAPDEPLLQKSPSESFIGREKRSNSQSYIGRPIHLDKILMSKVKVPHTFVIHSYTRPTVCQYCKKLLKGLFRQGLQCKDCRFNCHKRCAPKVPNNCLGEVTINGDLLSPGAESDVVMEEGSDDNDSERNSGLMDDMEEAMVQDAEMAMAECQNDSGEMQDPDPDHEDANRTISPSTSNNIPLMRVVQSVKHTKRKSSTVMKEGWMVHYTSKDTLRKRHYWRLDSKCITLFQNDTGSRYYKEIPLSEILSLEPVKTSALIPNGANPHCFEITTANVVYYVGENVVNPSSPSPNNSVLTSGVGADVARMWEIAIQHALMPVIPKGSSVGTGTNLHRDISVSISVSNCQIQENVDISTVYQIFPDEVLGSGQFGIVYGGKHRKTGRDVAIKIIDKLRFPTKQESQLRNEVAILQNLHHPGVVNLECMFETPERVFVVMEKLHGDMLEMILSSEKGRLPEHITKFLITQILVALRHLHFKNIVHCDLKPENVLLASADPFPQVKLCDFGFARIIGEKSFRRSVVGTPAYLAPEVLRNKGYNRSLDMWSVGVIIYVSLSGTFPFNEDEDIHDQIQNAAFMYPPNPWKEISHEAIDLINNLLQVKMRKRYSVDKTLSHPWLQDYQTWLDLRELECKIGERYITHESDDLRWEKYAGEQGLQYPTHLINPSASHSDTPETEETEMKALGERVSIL
Summary of the method: as §1

CAMK2G, sequence (Q13555 whole entry): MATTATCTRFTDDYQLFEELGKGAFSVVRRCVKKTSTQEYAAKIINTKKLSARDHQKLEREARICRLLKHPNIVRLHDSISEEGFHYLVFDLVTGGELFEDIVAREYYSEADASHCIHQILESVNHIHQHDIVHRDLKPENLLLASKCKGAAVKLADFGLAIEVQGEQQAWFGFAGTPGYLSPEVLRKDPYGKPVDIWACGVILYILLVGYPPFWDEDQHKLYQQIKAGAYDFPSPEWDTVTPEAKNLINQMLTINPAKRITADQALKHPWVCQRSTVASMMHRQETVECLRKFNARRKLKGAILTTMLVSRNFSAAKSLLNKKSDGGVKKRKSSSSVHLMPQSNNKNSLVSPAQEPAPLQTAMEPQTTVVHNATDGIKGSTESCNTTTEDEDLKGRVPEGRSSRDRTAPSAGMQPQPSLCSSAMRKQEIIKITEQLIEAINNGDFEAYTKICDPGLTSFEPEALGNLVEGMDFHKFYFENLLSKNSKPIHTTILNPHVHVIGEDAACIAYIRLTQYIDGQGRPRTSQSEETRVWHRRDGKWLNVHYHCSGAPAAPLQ
MELK, sequence (Q14680 whole entry, looked up): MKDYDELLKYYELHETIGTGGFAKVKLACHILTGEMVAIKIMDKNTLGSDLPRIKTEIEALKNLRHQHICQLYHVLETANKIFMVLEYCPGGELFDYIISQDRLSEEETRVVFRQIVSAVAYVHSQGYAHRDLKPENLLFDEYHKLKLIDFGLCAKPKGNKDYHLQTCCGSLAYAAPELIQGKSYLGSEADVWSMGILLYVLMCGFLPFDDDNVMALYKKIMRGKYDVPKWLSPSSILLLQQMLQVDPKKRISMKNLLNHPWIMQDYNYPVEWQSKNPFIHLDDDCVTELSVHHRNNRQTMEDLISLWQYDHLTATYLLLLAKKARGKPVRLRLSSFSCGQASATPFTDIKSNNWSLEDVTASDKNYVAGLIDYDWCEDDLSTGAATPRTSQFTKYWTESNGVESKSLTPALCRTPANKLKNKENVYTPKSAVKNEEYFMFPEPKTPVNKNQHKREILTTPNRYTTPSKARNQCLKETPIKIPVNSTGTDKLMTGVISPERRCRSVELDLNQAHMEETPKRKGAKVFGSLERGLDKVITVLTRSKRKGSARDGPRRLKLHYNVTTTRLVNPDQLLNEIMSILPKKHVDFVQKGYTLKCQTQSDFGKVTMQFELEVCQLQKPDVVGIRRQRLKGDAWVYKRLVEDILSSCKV
CDK9, sequence (P50750 whole entry): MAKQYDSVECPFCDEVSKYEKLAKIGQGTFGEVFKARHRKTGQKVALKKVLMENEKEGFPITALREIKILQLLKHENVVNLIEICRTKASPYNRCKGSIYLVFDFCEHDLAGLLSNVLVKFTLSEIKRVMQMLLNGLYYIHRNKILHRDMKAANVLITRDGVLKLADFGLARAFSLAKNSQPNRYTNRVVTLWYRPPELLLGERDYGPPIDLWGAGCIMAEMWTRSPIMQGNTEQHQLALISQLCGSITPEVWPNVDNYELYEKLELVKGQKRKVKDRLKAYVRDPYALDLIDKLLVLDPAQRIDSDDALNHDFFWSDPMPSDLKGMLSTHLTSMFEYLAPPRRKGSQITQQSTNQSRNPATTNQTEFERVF

pIC50 (CAMK2G; cell material: Lysate mix)	pIC50 (CDK9; cell material: Lysate mix)	pIC50 (MELK; cell material: Lysate mix)	pIC50 (PKMYT1; cell material: Lysate mix)	pIC50 (UniProt O15111; cell material: Lysate mix)	pIC50 (UniProt P45985; cell material: Lysate mix)	pIC50 (UniProt Q15139)	Compound	pIC50 (CAMK2G; cell material: Jurkat cells)	pIC50 (CAMK2G; cell material: Jurkat lysate)	pIC50 (CDK9; cell material: Jurkat lysate)	pIC50 (MELK; cell material: Jurkat cells)	pIC50 (MELK; cell material: Jurkat lysate)	pIC50 (PKMYT1; cell material: Jurkat lysate)	pIC50 (UniProt O15111; cell material: Jurkat cells)	pIC50 (UniProt O15111; cell material: Jurkat lysate)	pIC50 (UniProt P45985; cell material: Jurkat lysate)	pIC50 (CDK9; cell material: Jurkat cells)	pIC50 (PKMYT1; cell material: Jurkat cells)	pIC50 (UniProt P45985; cell material: Jurkat cells)
< 4.52	4.84	< 4.52	< 4.52	< 4.52	< 4.52	< 4.52	C#CCNC(=O)c1cc(Nc2cc(C)[nH]n2)nc(N2CCN(Cc3ccc(S(=O)(=O)F)cc3)CC2)n1												
< 4.52	4.73	< 4.52	< 4.52	< 4.52	4.88	< 4.52	CCNC(=O)c1cc(Nc2cc(C3CC3)[nH]n2)nc(N2CCN(Cc3ccc(S(=O)(=O)F)cc3)CC2)n1												

Second part, the compound before the results:

Compound	pIC50 (CAMK2G; cell material: Lysate mix)	pIC50 (CDK9; cell material: Lysate mix)	pIC50 (MELK; cell material: Lysate mix)	pIC50 (PKMYT1; cell material: Lysate mix)	pIC50 (UniProt O15111; cell material: Lysate mix)	pIC50 (UniProt P45985; cell material: Lysate mix)	pIC50 (UniProt Q15139)	pIC50 (CAMK2G; cell material: Jurkat cells)	pIC50 (CAMK2G; cell material: Jurkat lysate)	pIC50 (CDK9; cell material: Jurkat lysate)	pIC50 (MELK; cell material: Jurkat cells)	pIC50 (MELK; cell material: Jurkat lysate)	pIC50 (PKMYT1; cell material: Jurkat lysate)	pIC50 (UniProt O15111; cell material: Jurkat cells)	pIC50 (UniProt O15111; cell material: Jurkat lysate)	pIC50 (UniProt P45985; cell material: Jurkat lysate)	pIC50 (CDK9; cell material: Jurkat cells)	pIC50 (PKMYT1; cell material: Jurkat cells)	pIC50 (UniProt P45985; cell material: Jurkat cells)
Cc1cc(Nc2cc(C(=O)NCCNC(=O)OC3CC/C=C/CCC3)nc(N3CCN(Cc4ccc(S(=O)(=O)F)cc4)CC3)n2)n[nH]1 (stereo not drawn)	< 4.52	< 4.52	< 4.52	< 4.52	< 4.52	< 4.52	< 4.52												
O=C(NCCNC(=O)c1cc(Nc2cc(C3CC3)[nH]n2)nc(N2CCN(Cc3ccc(S(=O)(=O)F)cc3)CC2)n1)OC1CC/C=C/CCC1 (stereo not drawn)	< 4.52	< 4.52	< 4.52	< 4.52	< 4.52	< 4.52	< 4.52	< 4.52	< 4.52	< 4.52	< 4.52	< 4.52	< 4.52	< 4.52	< 4.52	< 4.52			
C#CCNC(=O)c1cc(Nc2cc(C3CC3)[nH]n2)nc(N2CCN(Cc3ccc(S(=O)(=O)F)cc3)CC2)n1	< 4.52	6.16	< 4.52	< 4.52	< 4.52	4.82	< 4.52	5.13	< 4.52	5.81	< 4.52	< 4.52	< 4.52	< 4.52	< 4.52	< 4.52	6.24	5.67	5.86
CCNC(=O)c1cc(Nc2cc(C)[nH]n2)nc(N2CCN(Cc3ccc(S(=O)(=O)F)cc3)CC2)n1	< 4.52	< 4.52	< 4.52	< 4.52	< 4.52	< 4.52	< 4.52												
